Test results: patent US20260297081A1, “COMPOUNDS AND METHODS OF TREATING CANCERS” (Cullgen Inc., priority 2023, published 2026)

Columns and labels:
Type in all cases: cell-based
Calu-1 cells = test: Anti-proliferation (viability) of NSCLC Calu-1 cells, 3 days (Table 7, FIG. 2B); conditions: Homo sapiens, 72 h; Calu-1 cells, 3 days, 10-point serial dilution; read-out: GI IC50 in Calu-1
Outline: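 Seed cells, add compound in ten serially diluted concentrations, then incubate (Calu-1: 3 days; T47D: 6 days) before measuring viability.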

MCF7 cells = test: Anti-proliferation (viability) of MCF7 cells (Table 7, FIG. 2B); conditions: Homo sapiens, MCF7, MCF7 cells, 3-6 days, 10-point serial dilution; read-out: GI IC50 in MCF-7
CDK4 = CDK4 (Homo sapiens, UniProt P11802+Q16531); test: HiBiT detection of HiBiT-tagged CDK4 protein level in MCF7 cells, 16 hours (Table 8); set-up: expressed in transfected cells; host or cells: MCF7; conditions: MCF7 cells stably expressing HiBiT tagged target proteins; for activity at 0.01 µM: 10 nM, read-out: % CDK4 Relative Level (10 nM); for activity at 0.1 µM: 100 nM, read-out: % CDK4 Relative Level (100 nM)
Description: HiBiT detection system quantitatively measures total amounts of HiBiT-tagged proteins using a luminescent based method. MCF7 cells stably expressing HiBiT tagged target proteins were treated with heterobifunctional compounds at indicated concentrations for 16 hours, then lysed with Nano-Glo HiBiT Lytic detection reagents.

CDK4, sequence (P11802 whole entry): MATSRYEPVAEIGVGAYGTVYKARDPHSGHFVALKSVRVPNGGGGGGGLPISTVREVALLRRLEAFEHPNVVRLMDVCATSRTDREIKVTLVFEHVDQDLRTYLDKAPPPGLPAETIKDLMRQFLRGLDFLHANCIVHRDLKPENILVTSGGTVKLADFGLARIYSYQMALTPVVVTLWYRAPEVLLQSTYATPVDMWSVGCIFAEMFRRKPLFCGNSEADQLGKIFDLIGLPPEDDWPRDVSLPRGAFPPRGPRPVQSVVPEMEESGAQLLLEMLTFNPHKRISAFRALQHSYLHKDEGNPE
CDK4, sequence (P24385 whole entry partner): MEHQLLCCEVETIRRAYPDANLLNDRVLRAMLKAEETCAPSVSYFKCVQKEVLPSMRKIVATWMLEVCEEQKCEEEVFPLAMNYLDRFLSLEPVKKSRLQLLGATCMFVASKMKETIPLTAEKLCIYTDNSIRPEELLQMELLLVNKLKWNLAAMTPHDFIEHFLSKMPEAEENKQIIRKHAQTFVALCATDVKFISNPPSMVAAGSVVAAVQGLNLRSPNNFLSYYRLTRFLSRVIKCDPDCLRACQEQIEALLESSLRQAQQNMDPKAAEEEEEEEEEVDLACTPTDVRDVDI
CDK4, sequence (Q16531 2-1140 limits assumed): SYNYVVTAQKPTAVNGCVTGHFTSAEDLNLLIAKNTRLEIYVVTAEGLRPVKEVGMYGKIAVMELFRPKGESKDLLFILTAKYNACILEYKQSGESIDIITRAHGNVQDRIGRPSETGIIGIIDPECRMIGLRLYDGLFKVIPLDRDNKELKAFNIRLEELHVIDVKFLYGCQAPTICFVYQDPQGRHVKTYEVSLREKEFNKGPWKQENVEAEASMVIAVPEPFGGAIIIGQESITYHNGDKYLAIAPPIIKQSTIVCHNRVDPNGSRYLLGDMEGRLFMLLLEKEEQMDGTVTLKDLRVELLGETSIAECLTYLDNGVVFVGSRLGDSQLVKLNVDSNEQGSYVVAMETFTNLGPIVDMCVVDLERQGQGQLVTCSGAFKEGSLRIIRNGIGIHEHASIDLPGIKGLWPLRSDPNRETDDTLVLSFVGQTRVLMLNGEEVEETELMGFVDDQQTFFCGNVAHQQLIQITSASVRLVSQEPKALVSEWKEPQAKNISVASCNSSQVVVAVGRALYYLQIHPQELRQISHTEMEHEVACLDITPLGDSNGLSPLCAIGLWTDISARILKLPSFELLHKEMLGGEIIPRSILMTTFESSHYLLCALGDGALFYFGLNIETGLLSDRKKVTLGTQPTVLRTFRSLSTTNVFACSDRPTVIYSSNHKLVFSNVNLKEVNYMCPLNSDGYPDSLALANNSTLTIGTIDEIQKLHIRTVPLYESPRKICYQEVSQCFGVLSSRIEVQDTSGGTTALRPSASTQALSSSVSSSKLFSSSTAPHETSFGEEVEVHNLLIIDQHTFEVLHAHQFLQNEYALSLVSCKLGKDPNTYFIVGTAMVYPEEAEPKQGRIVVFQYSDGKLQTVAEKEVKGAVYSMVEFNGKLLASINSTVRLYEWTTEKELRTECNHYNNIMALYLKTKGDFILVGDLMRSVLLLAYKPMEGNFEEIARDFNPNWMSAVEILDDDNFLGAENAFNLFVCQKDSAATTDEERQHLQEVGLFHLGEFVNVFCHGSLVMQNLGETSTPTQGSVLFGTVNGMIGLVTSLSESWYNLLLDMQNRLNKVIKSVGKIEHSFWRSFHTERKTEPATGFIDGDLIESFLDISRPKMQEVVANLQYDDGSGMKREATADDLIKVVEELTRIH

In the case of `CC(=O)c1c(C)c2cnc(Nc3ccc(CN4CCN(CC(=O)N5CC6(CCC(Nc7nc(NC(C)C)ccc7C(=O)Nc7ccc(N(C)C)nn7)C6)C5)CC4)cn3)nc2n(C2CCCC2)c1=O` (stereo not shown) [CPD-515, 2-((2-(2-(4-((6-((6-acetyl-8-cyclopentyl-5-methyl-7-oxo-7,8-dihydropyrido[2,3-d]pyrimidin-2-yl)amino)pyridin-3-yl)methyl)piperazin-1-yl)acetyl)-2-azaspiro[3.4]octan-6-yl)amino)-N-(6-(dimethylamino)pyridazin-3-yl)-6-(isopropylamino)nicotinamide], the IC50 (Calu-1 cells) is reported as ≤ 10 nM, the IC50 (MCF7 cells) is reported as < 50 nM and the activity at 0.01 µM (CDK4) is reported as > 85%. The activity at 0.1 µM (CDK4) was > 85%.
With `CC(=O)c1c(C)c2cnc(Nc3ccc(N4CCN(C5CCN(C(=O)[C@H]6CC[C@H](Nc7nc(NC(C)C)ccc7C(=O)Nc7cc8n(n7)CCC8)CC6)C5)CC4)cn3)nc2n(C2CCCC2)c1=O` (stereo partly drawn) [CPD-520, 2-((trans-4-(3-(4-(6-((6-acetyl-8-cyclopentyl-5-methyl-7-oxo-7,8-dihydropyrido[2,3-d]pyrimidin-2-yl)amino)pyridin-3-yl)piperazin-1-yl)pyrrolidine-1-carbonyl)cyclohexyl)amino)-N-(5,6-dihydro-4H-pyrrolo[1,2-b]pyrazol-2-yl)-6-(isopropylamino)nicotinamide] the IC50 (Calu-1 cells) was ≤ 10 nM, the IC50 (MCF7 cells) was < 50 nM and the activity at 0.01 µM (CDK4) was > 85%. The activity at 0.1 µM (CDK4) was > 85%.
In the case of `CC(=O)c1c(C)c2cnc(Nc3ccc(N4CCN(CC(=O)N(C)CC56CC(Nc7nc(NC(C)C)ccc7C(=O)Nc7ccc(N(C)C)nn7)(C5)C6)CC4)cn3)nc2n(C2CCCC2)c1=O` [CPD-525, 2-((3-((2-(4-(6-((6-acetyl-8-cyclopentyl-5-methyl-7-oxo-7,8-dihydropyrido[2,3-d]pyrimidin-2-yl)amino)pyridin-3-yl)piperazin-1-yl)-N-methylacetamido)methyl)bicyclo[1.1.1]pentan-1-yl)amino)-N-(6-(dimethylamino)pyridazin-3-yl)-6-(isopropylamino)nicotinamide], the IC50 (Calu-1 cells) is reported as ≤ 10 nM, the IC50 (MCF7 cells) is reported as < 50 nM and the activity at 0.01 µM (CDK4) is reported as > 85%. For the same compound, the activity at 0.1 µM (CDK4) was > 85%.
For `CC(=O)c1c(C)c2cnc(Nc3ccc(N4CCC5(CCN(CC(=O)N6CC7(CC(Nc8nc(NC(C)C)ccc8C(=O)Nc8cc9n(n8)CCC9)C7)C6)C5)C4)cn3)nc2n(C2CCCC2)c1=O` (stereo not shown) [CPD-529, 2-((2-(2-(7-(6-((6-acetyl-8-cyclopentyl-5-methyl-7-oxo-7,8-dihydropyrido[2,3-d]pyrimidin-2-yl)amino)pyridin-3-yl)-2,7-diazaspiro[4.4]nonan-2-yl)acetyl)-2-azaspiro[3.3]heptan-6-yl)amino)-N-(5,6-dihydro-4H-pyrrolo[1,2-b]pyrazol-2-yl)-6-(isopropylamino)nicotinamide], the IC50 (Calu-1 cells) was ≤ 10 nM, the IC50 (MCF7 cells) was < 50 nM and the activity at 0.01 µM (CDK4) was > 85%. For the same compound, the activity at 0.1 µM (CDK4) was > 85%.
In the case of `[2H]C([2H])([2H])Nc1ccc(C(=O)Nc2cccc(OC)n2)c(NC2CC3(C2)CN(C(=O)CC(N2CCN(c4ccc(Nc5ncc6c(C)c(C(C)=O)c(=O)n(C7CCCC7)c6n5)nc4)CC2)C(F)(F)F)C3)n1` (stereo not shown) [CPD-531, 2-((2-(3-(4-(6-((6-acetyl-8-cyclopentyl-5-methyl-7-oxo-7,8-dihydropyrido[2,3-d]pyrimidin-2-yl)amino)pyridin-3-yl)piperazin-1-yl)-4,4,4-trifluorobutanoyl)-2-azaspiro[3.3]heptan-6-yl)amino)-N-(6-methoxypyridin-2-yl)-6-((methyl-d3)amino)nicotinamide], the IC50 (Calu-1 cells) is reported as ≤ 10 nM, the IC50 (MCF7 cells) is reported as < 50 nM and the activity at 0.01 µM (CDK4) is reported as 55 to 85%. The activity at 0.1 µM (CDK4) was 55 to 85%.
For `COc1cccc(NC(=O)c2ccc(NC(C)C)nc2NC2CC3(C2)CN(C(=O)CN2CCC4(CCN(c5ccc(Nc6ncc7c(C)c(C(C)=O)c(=O)n(C8CCCC8)c7n6)nc5)C4)C2)C3)n1` (stereo not shown) [CPD-532, 2-((2-(2-(7-(6-((6-acetyl-8-cyclopentyl-5-methyl-7-oxo-7,8-dihydropyrido[2,3-d]pyrimidin-2-yl)amino)pyridin-3-yl)-2,7-diazaspiro[4.4]nonan-2-yl)acetyl)-2-azaspiro[3.3]heptan-6-yl)amino)-6-(isopropylamino)-N-(6-methoxypyridin-2-yl)nicotinamide], the IC50 (Calu-1 cells) was ≤ 10 nM, the IC50 (MCF7 cells) was < 50 nM and the activity at 0.01 µM (CDK4) was 55 to 85%. It also gave an activity at 0.1 µM (CDK4) of 55 to 85%.
`COC1(C(=O)N2CCC(N3CCN(c4ccc(Nc5ncc6c(C)c(C(C)=O)c(=O)n(C7CCCC7)c6n5)nc4)CC3)C2)CCC(Nc2nc(NC(C)C)ccc2C(=O)Nc2ccc(N(C)C)nn2)CC1` (stereo not shown) [CPD-536, 2-((4-(3-(4-(6-((6-acetyl-8-cyclopentyl-5-methyl-7-oxo-7,8-dihydropyrido[2,3-d]pyrimidin-2-yl)amino)pyridin-3-yl)piperazin-1-yl)pyrrolidine-1-carbonyl)-4-methoxycyclohexyl)amino)-N-(6-(dimethylamino)pyridazin-3-yl)-6-(isopropylamino)nicotinamide] was tested, and the IC50 (Calu-1 cells) was ≤ 10 nM, the IC50 (MCF7 cells) was < 50 nM and the activity at 0.01 µM (CDK4) was > 85%. It also gave an activity at 0.1 µM (CDK4) of 55 to 85%.
In the case of `CC(=O)c1c(C)c2cnc(Nc3ccc(N4CCN(C5CCN(C(=O)CC67CC(Nc8nc(NC(C)C)ccc8C(=O)Nc8ccc(N(C)C)nn8)(C6)C7)C5)CC4)cn3)nc2n(C2CCCC2)c1=O` (stereo not shown) [CPD-537, 2-((3-(2-(3-(4-(6-((6-acetyl-8-cyclopentyl-5-methyl-7-oxo-7,8-dihydropyrido[2,3-d]pyrimidin-2-yl)amino)pyridin-3-yl)piperazin-1-yl)pyrrolidin-1-yl)-2-oxoethyl)bicyclo[1.1.1]pentan-1-yl)amino)-N-(6-(dimethylamino)pyridazin-3-yl)-6-(isopropylamino)nicotinamide], the IC50 (Calu-1 cells) is reported as ≤ 10 nM, the IC50 (MCF7 cells) is reported as < 50 nM and the activity at 0.01 µM (CDK4) is reported as > 85%. For the same compound, the activity at 0.1 µM (CDK4) was > 85%.
In the case of `CC(=O)c1c(C)c2cnc(Nc3ccc(CN4CCN(C(C)C(=O)N5CCC6(CCC(Nc7nc(NC(C)C)ccc7C(=O)Nc7ccc(N(C)C)nn7)C6)C5)CC4)cn3)nc2n(C2CCCC2)c1=O` (stereo not shown) [CPD-550, 2-((2-(2-(4-((6-((6-acetyl-8-cyclopentyl-5-methyl-7-oxo-7,8-dihydropyrido[2,3-d]pyrimidin-2-yl)amino)pyridin-3-yl)methyl)piperazin-1-yl)propanoyl)-2-azaspiro[4.4]nonan-7-yl)amino)-N-(6-(dimethylamino)pyridazin-3-yl)-6-(isopropylamino)nicotinamide], the IC50 (Calu-1 cells) is reported as ≤ 10 nM, the IC50 (MCF7 cells) is reported as < 50 nM and the activity at 0.01 µM (CDK4) is reported as > 85%. The activity at 0.1 µM (CDK4) was > 85%.
With `CC(=O)c1c(C)c2cnc(Nc3ccc(C(C)N4CCN(CC(=O)N5CCC6(CCC(Nc7nc(NC(C)C)ccc7C(=O)Nc7ccc(N(C)C)nn7)C6)C5)CC4)cn3)nc2n(C2CCCC2)c1=O` (stereo not shown) [CPD-551, 2-((2-(2-(4-(1-(6-((6-acetyl-8-cyclopentyl-5-methyl-7-oxo-7,8-dihydropyrido[2,3-d]pyrimidin-2-yl)amino)pyridin-3-yl)ethyl)piperazin-1-yl)acetyl)-2-azaspiro[4.4]nonan-7-yl)amino)-N-(6-(dimethylamino)pyridazin-3-yl)-6-(isopropylamino)nicotinamide] the IC50 (Calu-1 cells) was ≤ 10 nM, the IC50 (MCF7 cells) was < 50 nM and the activity at 0.01 µM (CDK4) was > 85%. The activity at 0.1 µM (CDK4) was 55 to 85%.
